In US10940201B2, “Nucleic acid derivative having immunostimulatory activity” (Shionogi & Co., Ltd., priority 2015, dated 2021):
In the oligonucleotide strings, read from the 5' end, every base follows the letter of its sugar. An asterisk marks phosphorothioate; unmarked linkages are phosphodiester. Other units and linkages are bracketed, terminal groups are in braces. A string of capitals states the bases alone. d = 2'-deoxy (DNA)

What was measured:
tumor growth = assay: Anti-tumor effect (tumor inhibition rate) of OVA peptide vaccine with adjuvant; format: in vivo, mouse; conditions: Table 32, 1.57 nmol/head, compared to ODN1826 (SEQ-1)
Protocol: (§1) After immunization by TRP2 peptide vaccine, B16F10 cells (ATTC) which is mouse melanoma expressing TRP2 protein was subcutaneously transplanted to evaluate anti-tumor effect. In a similar method to Example 3 A), on the next day that tetramer-positive ratio in peripheral blood of mouse vaccinated twice every 7 days was observed, B16F10 cells (1×10^5 cells/mouse) were subcutaneously transplanted in the right shoulder. The major and minor axes of the engrafted tumor were measured every 2 to 3 days, and the tumor volume was calculated by the formula: (major axis×minor axis^2)/2 Calculation method for indicators of anti-tumor effect For the adjuvant comprising ODN1826 100·(average tumor volume of adjuvant group)/(average tumor volume of ODN1826 group) For the adjuvant comprising ODN2006 100·(average tumor volume of adjuvant group)/(average tumor volume of ODN2006 group)
The compound with bigger value has the stronger anti-tumor activity.
The activity of an adjuvant of the present invention having a lipid comprising two acyl chains comprising 10 to 20 carbon atoms as a ligand was examined with OVA peptide.

B16F10 cells = assay: Anti-tumor effect of TRP2 peptide vaccine using an adjuvant; format: in vivo, mouse
Protocol: as §1, with “In a similar method to Example 3 A), on the next day that tetramer-positive ratio in peripheral blood of mouse vaccinated twice every 7 days was observed, B16F10 cells (1×10^5 cells/mouse) were subcutaneously transplanted in the right shoulder.” left out

TRP2-specific CTL [1] = assay: CTL inducibility of TRP2 peptide vaccine with adjuvant (tetramer staining); format: in vivo, C57BL/6JJcl mice
Protocol: (§2) C57BL/6JJcl mice (6 to 8 weeks old) were purchased from CLEA Japan, Inc.
(§3) an adjuvant of the present invention or the well-known CpG ODN
The specific immunity was induced by vaccinating a mouse twice at 7 days intervals. Each vaccine was that 100 μg of TRP2 peptide, and 1.57 or 4.71 nmol of an adjuvant of the present invention or well-known CpG ODN, were dissolved in 1×PBS. 100 μL of the vaccine was administered subcutaneous injection on the flank of a mouse.
100 μL of the emulsion vaccine was administered subcutaneous injection on the flank of a mouse twice at 7 days intervals.
(§4) On 7 days after second vaccination, the blood was collected, red blood cells was removed by BD Pharm Lyse (BD pharmingen), and the white blood cells were suspended in FACS buffer (1% fetal bovine serum, 2 mM PBS with EDTA). Anti-mouse CD16/32 monoclonal antibody (BioXcell) was added thereto, and Fc receptor blocking was carried out at 4° C. for 30 minutes. […] Then, staining was carried out with DAPI (Invitrogen) and the cells were washed twice with FACS buffer. It was resuspended in FACS buffer and analyzed by FACS verse Flow Cytometer (BD bioscience) and FAC Suite software (BD bioscience). For analysis, after DAPI negative fraction was gated, white blood cells fraction were provided using forward and side-way scattering as indicators. In the white blood cells fraction, both positive cells of Alexa 647-CD8 and PE-H-2Kb Tetramer were defined as CTLs. CTL ratio in white blood cells was used for evaluation.
After calculation of the average CTL inducibility of each group per experiment, the ratio against average value of CTL inducibility of ssCpG ODN, ODN1826 (SEQ-1) or ODN2006 (SEQ-49) as a control was calculated.
In the case of an adjuvant comprising ODN1826 (Average of CTL inducibility of the adjuvant group)/(Average of CTL inducibility of the ODN1826 group)=the ratio against average value In the case of an adjuvant comprising ODN2006 (Average of CTL inducibility of the adjuvant group)/(Average of CTL inducibility of the ODN2006 group)=the ratio against average value
CTL inducibility of each adjuvant was shown when CTL inducibility of ssCpG ODN was taken as 1, so the bigger value means the higher CTL inducibility.

[2] = tested on: antigen-specific CTL (OVA peptide); assay: CTL inducibility of OVA peptide vaccine with adjuvant (tetramer staining); format: in vivo, C57BL/6JJcl mice; conditions: Table 32, 1.57 nmol/head, ODN1826 (SEQ-1) group = 1
Protocol: as §2, §3
The specific immunity was induced by vaccinating a mouse twice at 7 days intervals. […] 100 μL of the vaccine was administered subcutaneous injection on the flank of a mouse.
as §4, with “CTL ratio in white blood cells was used for evaluation.” left out
After calculation of the average CTL inducibility of each group per experiment, the ratio against average value of CTL inducibility of ssCpG ODN, ODN1826 (SEQ-1) or ODN2006 (SEQ-49) as a control was calculated. […]

recombinant PCRV protein = assay: Inducibility of antibody production in immunization by PCRV antigen vaccine (antibody titer); format: in vivo; conditions: A/J mice, recombinant PCRV protein with adjuvant, intradermal; antiserum Day 33; FIG. 15
Protocol: Perv nucleotide sequence (SEQ ID NO: 48) derived from Pseudomonas aeruginosa Strain PAO1 was cloned at NdeI-XhoI site in pET21a vector, and Escherichia coli strain BL21 (DE3) was transformed with the prepared plasmid. Strain perV-BL21 (DE3) was cultured in 500 mL of LB/Ampicillin liquid medium at 37° C., and 200 μL of 0.1 M IPTG was added when OD600 became 0.5 to induce expression of recombinant PCRV protein. After culturing at 16° C. for 18 hours, bacteria was separated by a centrifuge, and 15 ml of Buffer A (50 mM Tris-HCl (pH8.0), 0.2M NaCl) comprising 0.5% lysozyme (SIGMA Corporation) was added. After putting at 4° C. for 30 minutes, ultrasonic treatment was carried out. After centrifugation at 12,000 rpm for 10 minutes, soluble fraction was obtained. 1 mL of Ni-NTA agarose gel (QIAGEN) was added to Polyprep column (BIO-RAD Laboratories, Inc) and equilibrated with 10 mL of Buffer A. Soluble fraction was added to the column and passed. […] The resulting recombinant PCRV protein was measured the concentration with BCA assay kit (PIERCE) and kept at −80° C. […]
Antibody titer was measured as blow. […] 20 μL/well of 0.5 N sulfuric acid (Nacalai) was added, and absorbance at 450 nm was measured with a plate reader. The dilution ratio when absorbance at 450 nm is 1.0 was calculated and put as an antibody titer.

human TLR9 = target: T1, human TLR9 (Homo sapiens, UniProt Q9NR96); assay: Reporter assay with HEK-Blue hTLR9 cells (TLR9 agonist activity); format: cell-based; conditions: Table 30; CpG oligonucleotides except for ODN2006 and their double strands; read-out: EC50
T1 construct: host or cells: HEK-Blue hTLR9 cells (HEK293)
T1 sequence (Q9NR96 26-1032): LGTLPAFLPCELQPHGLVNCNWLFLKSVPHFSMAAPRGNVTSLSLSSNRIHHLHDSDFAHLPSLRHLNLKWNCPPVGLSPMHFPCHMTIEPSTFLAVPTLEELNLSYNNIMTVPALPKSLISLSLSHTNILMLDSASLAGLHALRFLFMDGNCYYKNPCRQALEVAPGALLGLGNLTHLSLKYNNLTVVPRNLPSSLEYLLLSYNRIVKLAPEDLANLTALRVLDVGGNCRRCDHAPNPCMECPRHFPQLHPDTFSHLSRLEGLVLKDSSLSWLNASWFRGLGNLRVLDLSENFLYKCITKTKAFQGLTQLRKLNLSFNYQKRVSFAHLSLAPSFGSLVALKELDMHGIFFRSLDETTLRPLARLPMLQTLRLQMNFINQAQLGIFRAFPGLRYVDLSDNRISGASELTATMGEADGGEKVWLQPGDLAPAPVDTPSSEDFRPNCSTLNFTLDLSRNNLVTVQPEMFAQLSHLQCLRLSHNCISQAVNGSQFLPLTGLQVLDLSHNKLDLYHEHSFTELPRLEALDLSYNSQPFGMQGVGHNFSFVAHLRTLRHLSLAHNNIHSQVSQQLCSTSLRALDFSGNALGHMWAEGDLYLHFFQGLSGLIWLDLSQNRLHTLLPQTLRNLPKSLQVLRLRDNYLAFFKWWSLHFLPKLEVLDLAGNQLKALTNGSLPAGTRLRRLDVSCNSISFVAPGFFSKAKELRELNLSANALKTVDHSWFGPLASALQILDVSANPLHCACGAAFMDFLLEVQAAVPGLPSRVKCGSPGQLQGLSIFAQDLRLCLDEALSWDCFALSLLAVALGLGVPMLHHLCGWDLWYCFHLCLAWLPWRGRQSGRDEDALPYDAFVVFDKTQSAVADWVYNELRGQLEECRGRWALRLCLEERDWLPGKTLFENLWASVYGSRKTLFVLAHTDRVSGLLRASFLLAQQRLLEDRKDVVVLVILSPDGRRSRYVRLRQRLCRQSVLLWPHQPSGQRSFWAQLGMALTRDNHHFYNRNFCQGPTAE
Protocol: HEK-Blue™ hTLR9 cells (Invivogen) used for the reporter assay were made by introducing human TLR9 gene and a reporter gene that secretory alkaline phosphatase gene bound to NF-kB-AP-1 binding region sequence in HEK293 cells, and are the cells stably expressing the both genes. 3.6×10^4 of the cells suspended in HEK-Blue™ Detection ([…]) comprising substrates against the alkaline phosphatase were seeded on the 96 well plate, and 3 nM to 30 μM of a lipid binding double-stranded oligonucleotide of the present invention, the known CpG oligonucleotides (ODN2006, SEQ-49), or adjuvant based on design in Patent Document 1, i.e., ssCpG ODN introducing a lipid ligand (SEQ-142, 143 or 144) was added. After culturing in a 37° C., 5% CO2 incubator for 16 hours, absorbency at 620 nm was measured using the culture supernatant developed a color. The result value was analyzed with TIBCO Spotfire software, and calculated the 50% effective concentration (EC50) of each oligonucleotide.

TRP2-specific CTL [3] = assay: CTL inducibility of TRP2 peptide vaccine with adjuvant (tetramer staining); format: in vivo, C57BL/6JJcl mice; remark: listed apart in the source
[4] = Table 56, 4.71 nmol, SEQ-256 (D35-CpG) group = 1
[5] = Table 65, 4.71 nmol, respective ssCpG ODN (ODN2216, ODN684, D-LS01) group = 1

ODN1826 [SEQ-1] was tested, and the “Tumor inhibition rate (Day 14 after transplantation)” value (tumor growth) was 0.00%, the “effect of inhibition on tumor progression of B16F10 cells (in words)” value (B16F10 cells) was “little effect of inhibition on tumor progression of B16F10 cells” and the “Tumor inhibition rate (Day 14 after transplantation)” value (B16F10 cells; Table 37, 1.57 nmol/head, compared to ODN1826 (SEQ-1)) was 0.00%. For the same substance, the “Ratio of average value of antigen-specific CTL” value (“Ratio … of antigen-specific CTL” for short) (TRP2-specific CTL [1]; Table 31, 1.57 nmol/head, ODN1826 (SEQ-1) group = 1) was 1.00, the “Ratio … of antigen-specific CTL” value (TRP2-specific CTL [1]; Table 33, 1.57 nmol/head, ODN1826 (SEQ-1) group = 1) was 1.00 and the “Ratio … of antigen-specific CTL” value (TRP2-specific CTL [1]; Table 34, 1.57 nmol/head, ODN1826 (SEQ-1) group = 1) was 1.00. The “Ratio … of antigen-specific CTL” value (TRP2-specific CTL [1]; Table 35, 1.57 nmol/head, ODN1826 (SEQ-1) group = 1) was 1.00, the “Ratio … of antigen-specific CTL” value (TRP2-specific CTL [1]; Table 36, 1.57 nmol/head (Montanide 100 μL), ODN1826 (SEQ-1) group = 1) was 1.00 and the “Ratio … of antigen-specific CTL” value (TRP2-specific CTL [1]; Table 37, 1.57 nmol/head, ODN1826 (SEQ-1) group = 1) was 1.00. The “CTL inducibility (in words)” value (TRP2-specific CTL [1]; adjuvants comprising ODN1826) was “TRP2-specific CTL was induced” and the “Ratio … of antigen-specific CTL” value [2] was 1.00.

For “PCRV protein: recombinant PCRV protein C-end HIS derived from Pseudomonas aeruginosa Strain PAO1, antigen given without adjuvant as control”, the “antibody titer (dilution ratio when absorbance at 450 nm is 1.0)” value (recombinant PCRV protein) was 1.3×10^5.

With “SEQ-253 (sense dA*dT*dC*dG*dA*dC*dT*dC*dT*dC*dG*dA*dG*dC*dG*dT*dT*dC*dT*dC)” the EC50 (human TLR9) was 2.87 µM.

With “SEQ-256 (sense dG*dGdTdGdCdAdTdCdGdAdTdGdCdAdGdGdGdG*dG*dG)” the EC50 (human TLR9) was 3420 µM and the “Ratio … of antigen-specific CTL” value (TRP2-specific CTL [3]; [4]) was 1.00.

In the case of “SEQ-258 (sense GGTGCATCGATGCAGGGGGG; antisense CCCCCCTGCATCGATG; phosphorothioate, 5' L4-18 lipid, chemistry not fully specified)”, the EC50 (human TLR9) is reported as 16.3 µM and the “Ratio … of antigen-specific CTL” value (TRP2-specific CTL [3]; [4]) is reported as 2.46.

“SEQ-342 (dT*dC*dG*dA*dC*dG*dT*dT*dC*dG*dT*dC*dG*dT*dT*dC*dG*dT*dC*dG*dT*dT*dC)” was tested, and the EC50 (human TLR9) was 2.34 µM and the “Ratio … of antigen-specific CTL” value (TRP2-specific CTL [3]; [5]) was 1.00.

With “SEQ-345 (dT*dC*dG*dC*dG*dA*dC*dG*dT*dT*dC*dG*dC*dC*dC*dG*dA*dC*dG*dT*dT*dC*dG*dG*dT*dA)” the EC50 (human TLR9) was 6.28 µM and the “Ratio … of antigen-specific CTL” value (TRP2-specific CTL [3]; [5]) was 1.00.

Substance “SEQ-351 (dT*dC*dG*dT*dC*dG*dT*dT*dT*dT*dC*dG*dG*dC*dG*dC*dG*dC*dG*dC*dC*dG)” has an EC50 (human TLR9) of 11.6 µM.

“SEQ-354 (dT*dC*dG*dT*dC*dG*dT*dC*dG*dT*dT*dC*dG*dA*dA*dC*dG*dA*dC*dG*dT*dT*dG*dA*dT)” was tested, and the EC50 (human TLR9) was 16900 µM and the “Ratio … of antigen-specific CTL” value (TRP2-specific CTL [1]; Table 66, 4.71 nmol, SEQ-354 (ODN M362) group = 1) was 1.00.
